Here are results for 29 compounds from patent US20230024438A1, “INHIBITORS OF HIF-2ALPHA” (ARCUS BIOSCIENCES, INC., priority 2019, published 2023).

One assay concerns the target T1, HIF-2α (Homo sapiens, UniProt Q99814).
T1 construct: endogenous in cells; host or cells: 786-O cells (ATCC CRL-1932) stably carrying the Cignal Lenti HIF Luc Reporter
Kind of assay: HIF-2α Luciferase Reporter Assay. The class given is cell-based. The method, then:
Stable cell lines were generated by transducing 786-O cells (ATCC, CRL-1932) with Cignal Lenti HIF Luc Reporter lentivirus (CLS-007L, Qiagen) according to the manufacturer's guidelines. In brief, 0.3×10^6 786-0 cells were transduced with lentivirus at a Multiplicity of Infection (MOI) of 25 for 24 hours. After transduction, cells were replenished with fresh RPMI 1640 Medium (Cat. No. 11875085, Thermo Fisher,) supplemented with 10% FBS (Cat. No. A3160502, Gibco), 2 mM GlutaMax (Cat. No. 35050-061, Invitrogen) and 100 units of penicillin and 100 μg of streptomycin/mL (Cat. No 15070063, Thermo Fisher) for another 24 hours. Antibiotic selection was performed in cell media containing 4 μg/mL of Puromycin. After 7 days of antibiotic selection, stable pools of surviving cells were expanded and used in a luciferase reporter assay.
On day one, 20 uL of HIF-Luc-786-0 cells in OptiMem (Cat. No. 31985088, Thermo Fisher) were seeded into each well of a 384 well white opaque plate (Corning 3570) and incubated at 37° C. and 5% CO2. Twenty microliters of 2× test compounds in OptiMem were added to cells after 4 hours of incubation. Final assay conditions comprised 20,000 cells per well in 1% DMSO with test compound concentrations ranging from 50 uM to 0 uM. After 20 hours incubation at 37° C. and 5% CO2, luciferase activity was determined using ONE-Glo Luciferase Assay Reagent (E6110, Promega) following the manufacture's recommended procedure. Briefly, 40 uL of ONE-Glo luciferase reagents were added to each well and luciferase signals were measured using an Envision 2102 Multilabel Reader. Percentage maximum activity in each test well was calculated based on DMSO (maximum activity) and no cell control wells (baseline activity). The IC50 values of the test compounds were determined from compound dose response curves fitted using a standard four parameter fit equation.

For assay [1], the target named is T2, Histidine tagged HIF-2α protein containing PAS-B domain (240-350) (Homo sapiens, UniProt Q99814).
T2 construct: Histidine tagged HIF-2α protein containing PAS-B domain (240-350) was prepared and purified in house; made in house
Kind of assay: HIF-2α Scintillation Proximity Assay (SPA). The class given is binding. As for the experimental part: Tritium labeled compound N-(3-chlorophenyl)-4-nitro-2,1,3-benzoxadiazol-5-amine was obtained from American Radiolabeled Chemicals Inc. and copper chelate PVT SPA beads were from PerkinElmer (Cat #RPNQ0095). Histidine tagged HIF-2α protein containing PAS-B domain (240-350) was prepared and purified in house.
Compounds solubilized in DMSO were dispensed into a white 384-well polystyrene non-binding flat clear bottom plate (Greiner Bio-One, Cat #781903) using an HP D300 dispenser. Ten microliters of HIS-tagged HIF-2α protein in buffer (25 mM Tris-HCl, pH 7.4, 150 mM NaCl, 0.15% BSA and 0.001% Tween 20) was added to the compound wells and allowed to incubate for 1 hour at room temperature. Ten microliters of SPA bead mix were added to the wells and incubated for an additional 45 minutes, followed by 10 ul of ^3H-tracer solution. Final assay conditions comprised 50 nM HIF-2α protein, 25 nM radiolabeled tracer and 3 ug beads per well with compounds in 2% DMSO. The plate was read using a MicroBeta Microplate Counter (PerkinElmer) for luminescence detection. The IC50 values of the test compounds were determined from compound dose response curves fitted using a standard four parameter fit equation and are reported in Table 1.
On the technique in general: SPA uses beads or plates that emit light when radiolabelled molecules are held near them.

Where [2] appears, read: HIF-Luc-786-0 cells, 20 hours incubation, luciferase activity, read-out: HIF-2α Luciferase Assay.
The mark [3] stands for this setting: 50 nM HIF-2α protein, 25 nM radiolabeled tracer, read-out: HIF-2α Scintillation Proximity Assay.

Like-named read-outs stand apart in the source and are kept apart here.

T1 sequence (Q99814 whole entry): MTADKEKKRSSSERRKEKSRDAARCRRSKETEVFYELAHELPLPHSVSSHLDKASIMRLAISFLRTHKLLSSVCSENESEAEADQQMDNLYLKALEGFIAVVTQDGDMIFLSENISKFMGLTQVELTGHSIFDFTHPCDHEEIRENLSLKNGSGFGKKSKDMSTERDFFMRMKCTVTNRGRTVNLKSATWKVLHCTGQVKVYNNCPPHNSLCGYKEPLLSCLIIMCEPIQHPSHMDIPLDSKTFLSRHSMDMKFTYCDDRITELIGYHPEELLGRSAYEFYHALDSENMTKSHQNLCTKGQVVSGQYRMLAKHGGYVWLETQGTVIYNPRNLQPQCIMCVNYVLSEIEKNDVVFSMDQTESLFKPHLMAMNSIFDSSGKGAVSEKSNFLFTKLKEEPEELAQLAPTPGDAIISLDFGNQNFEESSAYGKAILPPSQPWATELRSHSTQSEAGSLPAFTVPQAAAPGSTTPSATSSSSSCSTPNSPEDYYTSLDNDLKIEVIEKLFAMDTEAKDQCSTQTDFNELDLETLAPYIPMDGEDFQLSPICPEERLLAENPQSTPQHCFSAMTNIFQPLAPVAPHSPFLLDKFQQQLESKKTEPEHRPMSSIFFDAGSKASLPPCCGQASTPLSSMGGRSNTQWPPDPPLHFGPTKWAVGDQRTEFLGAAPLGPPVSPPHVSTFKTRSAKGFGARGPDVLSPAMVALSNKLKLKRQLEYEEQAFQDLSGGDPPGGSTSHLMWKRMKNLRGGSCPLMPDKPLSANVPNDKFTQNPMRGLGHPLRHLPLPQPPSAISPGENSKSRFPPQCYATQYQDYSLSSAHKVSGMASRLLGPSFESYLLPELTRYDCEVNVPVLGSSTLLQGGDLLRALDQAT
T2 sequence (Q99814 240-350): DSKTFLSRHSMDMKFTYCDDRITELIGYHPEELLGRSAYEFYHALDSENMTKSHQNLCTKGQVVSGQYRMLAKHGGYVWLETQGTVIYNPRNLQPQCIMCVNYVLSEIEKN

For the compound `O=S(=O)(c1ccc(Oc2cccc(Cl)c2)c2c(Cl)n[nH]c12)C(F)(F)F` [Example 63, 3-Chloro-4-(m-chlorophenoxy)-7-(trifluoromethylsulfonyl)-1H-indazole], the IC50 was greater than 10 µM on HIF-2α (setting [2]) and 1 to 10 µM in assay [1] (setting [3]).

As for `N#Cc1cc(F)cc(Oc2ccc(S(=O)(=O)C(F)(F)F)c3cn[nH]c23)c1` [Example 70, 3-Fluoro-5-[4-(trifluoromethylsulfonyl)-1H-indazol-7-yloxy]benzonitrile], the IC50 (at HIF-2α (setting [2]); in assay [1] (setting [3])) was 1 to 10 µM each time.

Turning to `N#Cc1cc(F)cc(Oc2cnc(C(F)(F)F)c3[nH]ncc23)c1` [Example 68, 3-Fluoro-5-{[7-(trifluoromethyl)-1H-pyrazolo[3,4-c]pyridin-4-yl]oxy}benzonitrile], the IC50 (on HIF-2α (setting [2]); in assay [1] (setting [3])) was 1 to 10 µM in each case.

For `O=S(=O)(c1ccc(N2CCCc3cc(F)cc(F)c32)c2cn[nH]c12)C(F)(F)F` [Example 49, 6,8-Difluoro-1-(7-trifluoromethanesulfonyl-1H-indazol-4-yl)-1,2,3,4-tetrahydroquinoline], the IC50 at HIF-2α (setting [2]) is greater than 10 µM.

As for `N#Cc1cncc(Oc2ccc(S(=O)(=O)C(F)(F)F)c3[nH]ncc23)c1` [Example 24, 5-[(7-Trifluoromethanesulfonyl-1H-indazol-4-yl)oxy]pyridine-3-carbonitrile], the IC50 (at HIF-2α (setting [2]); in assay [1] (setting [3])) was 1 to 10 µM each time.

On to `O=S(=O)(c1ccc(Oc2cccc(C(F)(F)F)c2)c2cn[nH]c12)C(F)(F)F` [Example 32, 4-[3-(Trifluoromethyl)phenoxy]-7-(trifluoromethylsulfonyl)-1H-indazole], for which the IC50 (on HIF-2α (setting [2]); in assay [1] (setting [3])) was greater than 10 µM in each case.

Regarding `O=S(=O)(c1ccc(NCc2ccc(F)cc2F)c2cn[nH]c12)C(F)(F)F` [Example 53, N-[(2,4-difluorophenyl)methyl]-7-(trifluoromethylsulfonyl)-1H-indazol-4-amine], the IC50 (at HIF-2α (setting [2]); in assay [1] (setting [3])) was greater than 10 µM throughout.

As for `Fc1cc(Cl)cc(Oc2cnc(C(F)(F)F)c3[nH]ncc23)c1` [Example 69, 4-(3-Chloro-5-fluorophenoxy)-7-(trifluoromethyl)-1H-pyrazolo[3,4-c]pyridine], the IC50 (at HIF-2α (setting [2]); in assay [1] (setting [3])) was 1 to 10 µM throughout.

Consider `N#Cc1cc(F)cc(Nc2ncnc3[nH]ncc23)c1` [Example 67, 3-Fluoro-5-({1H-pyrazolo[3,4-d]pyrimidin-4-yl}amino)benzonitrile], for which the IC50 on HIF-2α (setting [2]) fell in the range of 1 to 10 µM.

With `N#Cc1cc(Nc2ccc(S(=O)(=O)C(F)(F)F)c3[nH]ncc23)ccc1F` [Example 48, 2-Fluoro-5-[7-(trifluoromethylsulfonyl)-1H-indazol-4-ylamino]benzonitrile], the IC50 (at HIF-2α (setting [2]); in assay [1] (setting [3])) was greater than 10 µM throughout.

Turning to `Fc1cc(F)cc(Oc2ccc(C(F)(F)F)c3[nH]ncc23)c1` [Example 26, 4-(3,5-Difluorophenoxy)-7-(trifluoromethyl)-1H-indazole], the IC50 (at HIF-2α (setting [2]); in assay [1] (setting [3])) was 1 to 10 µM throughout.

`O=S(=O)(c1ccc(Oc2ccccc2)c2cn[nH]c12)C(F)(F)F` [Example 16, 4-Phenoxy-7-(trifluoromethylsulfonyl)-1H-indazole]: the IC50 on HIF-2α (setting [2]) was 1 to 10 µM; in assay [1] (setting [3]) it was greater than 10 µM.

As to `O=S(=O)(c1ccc(Oc2cc(Cl)cc(OC(F)(F)F)c2)c2cn[nH]c12)C(F)(F)F` [Example 29, 4-[3-Chloro-5-(trifluoromethoxy)phenoxy]-7-(trifluoromethylsulfonyl)-1H-indazole], the IC50 (on HIF-2α (setting [2]); in assay [1] (setting [3])) was greater than 10 µM in each case.

Take `N#Cc1ccc(Oc2ccc(S(=O)(=O)C(F)(F)F)c3[nH]ncc23)cc1F` [Example 34, 2-Fluoro-4-[[7-(trifluoromethylsulfonyl)-1H-indazol-4-yl]oxy]benzonitrile]: the IC50 (on HIF-2α (setting [2]); in assay [1] (setting [3])) was greater than 10 µM in each case.

On to `N#Cc1cc(Oc2ccc(S(=O)(=O)C(F)(F)F)c3[nH]ncc23)ccc1F` [Example 36, 2-Fluoro-5-[[7-(trifluoromethylsulfonyl)-1H-indazol-4-yl]oxy]benzonitrile], for which the IC50 was greater than 10 µM on HIF-2α (setting [2]) and 1 to 10 µM in assay [1] (setting [3]).

On to `N#Cc1cc(F)cc(Nc2cncc3[nH]ncc23)c1` [Example 66, 3-Fluoro-5-({1H-pyrazolo[3,4-c]pyridin-4-yl}amino)benzonitrile], for which the IC50 on HIF-2α (setting [2]) is 1 to 10 µM.

As for `O=S(=O)(c1ccc(NCc2cc(Cl)cc(Cl)c2)c2cn[nH]c12)C(F)(F)F` [Example 56, N-[(3,5-dichlorophenyl)methyl]-7-(trifluoromethylsulfonyl)-1H-indazol-4-amine], the IC50 (at HIF-2α (setting [2]); in assay [1] (setting [3])) was greater than 10 µM in each case.

Regarding `N#Cc1cc(F)cc(Nc2ccc(S(=O)(=O)C(F)(F)F)c3[nH]ncc23)c1` [Example 45, 3-Fluoro-5-[(7-trifluoromethanesulfonyl-1H-indazol-4-yl)amino] benzonitrile], the IC50 (on HIF-2α (setting [2]); in assay [1] (setting [3])) was 1 to 10 µM in each case.

For `CS(=O)(=O)c1ccc(Oc2cc(F)cc(C#N)c2)c2c(Cl)n[nH]c12` [Example 8, 3-[(3-Chloro-7-methanesulfonyl-1H-indazol-4-yl)oxy]-5-fluorobenzonitrile], the IC50 at HIF-2α (setting [2]) is 1 to 10 µM; in assay [1] (setting [3]), greater than 10 µM.

Consider `N#Cc1ccc(Cl)c(Oc2ccc(S(=O)(=O)C(F)(F)F)c3[nH]ncc23)c1` [Example 43, 4-Chloro-3-[(7-trifluoromethanesulfonyl-1H-indazol-4-yl)oxy]benzonitrile], for which, on HIF-2α (setting [2]), the IC50 was 1 to 10 µM.

Turning to `N#Cc1ccc(F)c(Oc2ccc(S(=O)(=O)C(F)(F)F)c3[nH]ncc23)c1` [Example 44, 4-Fluoro-3-[(7-trifluoromethanesulfonyl-1H-indazol-4-yl)oxy]benzonitrile], the IC50 on HIF-2α (setting [2]) was greater than 10 µM.

Take `O=S(=O)(c1ccc(NC2CC(F)(F)C2)c2cn[nH]c12)C(F)(F)F` [Example 57, N-(3,3-Difluorocyclobutyl)-7-trifluoromethanesulfonyl-1H-indazol-4-amine]: the results for the IC50 (at HIF-2α (setting [2]); in assay [1] (setting [3])) were greater than 10 µM and 1 to 10 µM, respectively.

Regarding `N#Cc1cc(F)cc(Oc2ccc(S(=O)(=O)C(F)(F)F)c3[nH]ncc23)c1` [Example 15, 3-Fluoro-5-[(7-trifluoromethanesulfonyl-1H-indazol-4-yl)oxy]benzonitrile], the IC50 (against HIF-2α; in assay [1]) was less than 1 µM in each case.

With `CS(=O)(=O)c1ccc(Oc2cccc(Cl)c2)c2cn[nH]c12` [Example 5, 4-(3-Chlorophenoxy)-7-methanesulfonyl-1H-indazole], at HIF-2α (setting [2]), the IC50 lay within 1 to 10 µM.

Consider `N#Cc1cc(C#N)cc(Oc2ccc(S(=O)(=O)C(F)(F)F)c3[nH]ncc23)c1` [Example 22, 5-[(7-Trifluoromethanesulfonyl-1H-indazol-4-yl)oxy]benzene-1,3-dicarbonitrile], for which the IC50 in assay [1] (setting [3]) fell in the range of 1 to 10 µM.

In the case of `N#Cc1cc(F)cc(Nc2cc(Cl)cc3[nH]ncc23)c1` [Example 65, 3-[(6-Chloro-1H-indazol-4-yl)amino]-5-florobenzonitrile], the IC50 on HIF-2α (setting [2]) lay within 1 to 10 µM.

As for `CS(=O)(=O)c1ccc(Oc2cc(F)cc(C#N)c2)c2cn[nH]c12` [Example 3, 3-Fluoro-5-[(7-methanesulfonyl-1H-indazol-4-yl)oxy]benzonitrile], the IC50 at HIF-2α (setting [2]) was greater than 10 µM.

Take `CS(=O)(=O)c1ccc(Oc2ccc(Cl)c(Cl)c2)c2cn[nH]c12` [Example 6, 4-(3,4-Dichlorophenoxy)-7-methanesulfonyl-1H-indazole]: the IC50 on HIF-2α (setting [2]) lay in the range of 1 to 10 µM.

`CS(=O)(=O)c1ccc(Nc2cc(F)cc(C#N)c2)c2cn[nH]c12` [Example 1, 3-Fluoro-5-[(7-methanesulfonyl-1H-indazol-4-yl)amino]benzonitrile]: at HIF-2α (setting [2]), the IC50 lay within 1 to 10 µM.
